ChEMBL document CHEMBL5512689, “Discovery of Clinical Candidate PF-06648671: A Potent γ-Secretase Modulator for the Treatment of Alzheimer's Disease” (J Med Chem, 2024)
Values after ≈ are worked out from the molar mass of the structure shown.

Columns and labels:
[1] = Drug penetration in rat assessed as Unbound brain-to-plasma concentration ratio; format: ADME, cell-free; conditions: read-out: K(p,uu,brain)
[2] = Volume of distribution at steady state in rat at 1 mg/kg, iv; format: ADME, organism-based; conditions: in vivo, read-out: Vdss
[3] = Volume of distribution at steady state in human at 1 mg/kg, iv; format: ADME, organism-based; conditions: in vivo, read-out: Vdss
[4] = Lipophilicity, log D of the compound by shake flask method; format: physicochemical; conditions: octanol/water
[5] = Oral bioavailability in rat at 5 mg/kg; format: ADME, organism-based; conditions: in vivo
[6] = Lipophilicity, log D of the compound; format: physicochemical; conditions: octanol/water
[7] = Drug penetration in human assessed as Unbound brain-to-plasma concentration ratio; format: ADME, cell-free; conditions: read-out: K(p,uu,brain)
[8] = Apparent permeability across apical to basolateral side in dog RRCK cells; format: ADME, cell-based, Canis lupus familiaris, MDCKII-LE; conditions: MDCK
[9] = Volume of distribution at steady state in dog at 1 mg/kg, iv; format: ADME, organism-based, Canis lupus familiaris; conditions: in vivo, read-out: Vdss
[10] = Oral bioavailability in dog at 5 mg/kg; format: ADME, organism-based, Canis lupus familiaris; conditions: in vivo
[11] = Ratio of drug concentration in brain to plasma in rat at 10 mg/kg, po; format: ADME, organism-based; conditions: read-out: BPR
[12] = Kinetic solubility of compound at pH 6.5; format: physicochemical; conditions: buffer, read-out: Kinetic_solubility
[13] = Oral bioavailability in human at 5 mg/kg; format: ADME, organism-based; conditions: in vivo
[14] = Drug penetration in Non human primate assessed as unbound brain-to-plasma concentration ratio; format: ADME, cell-free; conditions: primates, read-out: K(p,uu,brain)

Cc1cn(-c2ccc3n(c2=O)CCN([C@@H](C)[C@@H]2CC[C@H](c4cc(F)c(C(F)(F)F)c(F)c4)O2)C3=O)cn1
Kp uu [1]: 0.08

Cc1cn(-c2ccc3n(c2=O)CCN([C@@H](C)[C@@H]2CC[C@H](c4ccc(C(F)(F)F)c(F)c4F)O2)C3=O)cn1
Kp uu [1]: 0.5

Cc1cn(-c2ccc3n(c2=O)CCN([C@@H](C)[C@@H]2CC[C@H](c4cc(F)c(Cl)cc4C(F)(F)F)O2)C3=O)cn1
Vd [2]: 0.8 L/kg | Vd [3]: 1.3 L/kg | logD [4]: 4.2 | bioavailability [5]: 67% | logD [6]: 5 | Kp uu [7]: 1 | Papp A→B [8]: 5.8 ×10⁻⁶ cm/s | Vd [9]: 0.7 L/kg | bioavailability [10]: 88% | Kp [11]: 1.5 | Kp uu [1]: 0.7 | solubility kinetic [12]: 44.8 µM (≈ 24.1 µg/mL) | bioavailability [13]: 60%

Cc1cn(-c2ccc3n(c2=O)CCN([C@@H](C)[C@@H]2CC[C@H](c4ccc(C(F)(F)F)cc4)O2)C3=O)cn1
Kp uu [1]: 0.5

Cc1cn(-c2ccc3n(c2=O)CCN([C@@H](C)[C@@H]2CC[C@H](c4ccc(Cl)cc4C(F)(F)F)O2)C3=O)cn1
Kp uu [14]: 1 | Kp uu [1]: 0.5
